Data: patent US9834542B2, “LXR modulators” (BRISTOL-MYERS SQUIBB COMPANY, priority 2013, dated 2017)

Molecular target: T1, LXRβ (Homo sapiens, UniProt P55055)
T1 construct: Co-transfection expression plasmids, comprising full-length LXRα (pCMX-h LXRα[…] or LXRβ (pCMX-hLXRβ)); expressed in transfected cells; host or cells: CV-1 African Green Monkey Kidney Cells
T1 sequence (P55055 1-460): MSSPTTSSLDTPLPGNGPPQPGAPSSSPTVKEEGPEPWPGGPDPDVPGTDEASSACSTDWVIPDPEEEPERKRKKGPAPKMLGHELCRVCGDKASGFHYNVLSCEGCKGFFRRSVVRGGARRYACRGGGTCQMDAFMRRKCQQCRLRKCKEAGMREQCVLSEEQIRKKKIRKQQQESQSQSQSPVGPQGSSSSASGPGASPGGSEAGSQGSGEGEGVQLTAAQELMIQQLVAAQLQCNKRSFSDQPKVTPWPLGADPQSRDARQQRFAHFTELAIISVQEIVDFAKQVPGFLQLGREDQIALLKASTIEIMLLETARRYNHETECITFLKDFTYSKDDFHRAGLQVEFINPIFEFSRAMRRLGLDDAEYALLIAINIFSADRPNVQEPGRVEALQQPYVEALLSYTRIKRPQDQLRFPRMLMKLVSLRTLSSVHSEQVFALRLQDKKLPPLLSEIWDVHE
T1 sequence (P19793 1-462 partner): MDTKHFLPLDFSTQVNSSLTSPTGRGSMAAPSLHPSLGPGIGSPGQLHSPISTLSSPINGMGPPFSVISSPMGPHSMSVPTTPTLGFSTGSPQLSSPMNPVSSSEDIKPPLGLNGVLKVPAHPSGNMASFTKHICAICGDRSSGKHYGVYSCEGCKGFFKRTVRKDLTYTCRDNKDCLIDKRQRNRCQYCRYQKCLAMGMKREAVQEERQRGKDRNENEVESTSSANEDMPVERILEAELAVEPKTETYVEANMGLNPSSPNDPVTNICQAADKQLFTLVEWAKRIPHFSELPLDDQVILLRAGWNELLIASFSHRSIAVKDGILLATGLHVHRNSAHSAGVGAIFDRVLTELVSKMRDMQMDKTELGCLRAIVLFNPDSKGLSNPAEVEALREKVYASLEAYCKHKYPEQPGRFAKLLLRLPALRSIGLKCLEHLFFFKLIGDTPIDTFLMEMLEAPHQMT
Assay: Co-transfection assay (LXRE luciferase reporter), LXRβ
Format: cell-based
Details: for EC50: CV-1 cells transfected with pCMX-hLXRβ and LXREx1-Tk-Luciferase, 20 hours incubation; for Emax: LXRβ co-transfection, relative to high control 1-(2,4-difluorobenzyl)-2-oxo-6-(4-phenoxyphenyl)-4-(trifluoromethyl)-1,2-dihydropyridine-3-carbonitrile, read-out: % Efficacy
Procedure, shortened: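 Cell-based LXRβ agonism measured as LXRE-luciferase induction in transiently transfected CV-1 cells after 20 h treatment. Potency is the curve-fit EC50; efficacy is expressed as percent of a full-agonist control's maximal response.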

SMILES | EC50 [nM] | Emax [%]
Cc1nc(C(F)(F)F)cn1-c1ccc(-c2cccc(S(C)(=O)=O)c2)cc1-n1nncc1-c1ccc(Cl)c(C(F)(F)F)c1 [Example 64, 5-[4-chloro-3-(trifluoromethyl)phenyl]-1-{3′-(methylsulfonyl)-4-[2-methyl-4-(trifluoromethyl)-1H-imidazol-1-yl]biphenyl-3-yl}-1H-1,2,3-triazole] | 289 | 86
Cc1nc(C(F)(F)F)cn1-c1ccc(-c2cc(Cl)c(CO)c(S(C)(=O)=O)c2)cc1-n1nncc1Cc1ccc(Cl)cc1 [Example 122, (3-chloro-3′-{5-[(4-chlorophenyl)methyl]-1H-1,2,3-triazol-1-yl}-5-(methylsulfonyl)-4′-[2-methyl-4-(trifluoromethyl)-1H-imidazol-1-yl]biphenyl-4-yl)methanol] | 643 | 64
Cc1nc(C(C)(F)F)cn1-c1ccc(-c2cccc(S(C)(=O)=O)c2)cc1-c1ocnc1-c1ccc(OC(F)(F)F)cc1 [Example 362, 5-{4-[4-(1,1-difluoroethyl)-2-methyl-1H-imidazol-1-yl]-3′-(methylsulfonyl)biphenyl-3-yl}-4-{4-[(trifluoromethyl)oxy]phenyl}-1,3-oxazole] | 691 | 75
Cc1cn(-c2ccc(-c3cc(F)c(CO)c(S(C)(=O)=O)c3)cc2-n2nncc2-c2ccc(OC(F)(F)F)cc2)c(C)n1 [Example 84, [4′-(2,4-dimethyl-1H-imidazol-1-yl)-3-fluoro-5-(methylsulfonyl)-3′-(5-{4-[(trifluoromethyl)oxy]phenyl)-1H-1,2,3-triazol-1-yl)biphenyl-4-yl]methanol] | 852 | 96
Cc1nc(C(F)(F)F)cn1-c1ccc(-c2cccc(S(C)(=O)=O)c2)cc1-n1nncc1-c1ccc(OCC(F)(F)F)cc1 [Example 31, 1-{3′-(methylsulfonyl)-4-[2-methyl-4-(trifluoromethyl)-1H-imidazol-1-yl]biphenyl-3-yl}-5-{4-[(2,2,2-trifluoroethyl)oxy]phenyl}-1H-1,2,3-triazole] | 606 | 90
CC(=O)c1ccc(-c2cnnn2-c2cc(-c3cccc(S(C)(=O)=O)c3)ccc2-n2cc(C(F)(F)F)nc2C)cc1 [Example 36, 1-[4-(1-{3′-(methylsulfonyl)-4-[2-methyl-4-(trifluoromethyl)-1H-imidazol-1-yl]biphenyl-3-yl}-1H-1,2,3-triazol-5-yl)phenyl]ethanone] | 724 | 60
CS(=O)(=O)c1cc(-c2cc(F)c(-n3cnc(C(F)(F)F)c3)c(-n3nncc3-c3ccc(Cl)cc3Cl)c2)cc(F)c1CO [Example 190, {3′-[5-(2,4-dichlorophenyl)-1H-1,2,3-triazol-1-yl]-3,5′-difluoro-5-(methylsulfonyl)-4′-[4-(trifluoromethyl)-1H-imidazol-1-yl]biphenyl-4-yl}methanol] | 208 | 119
Cc1nc(C(F)(F)F)cn1-c1c(F)cc(-c2cccc(S(=O)(=O)N3CCCC3)c2)cc1-n1nncc1-c1ccc(OC(F)(F)F)cc1 [Example 199, 1-{5-fluoro-4-[2-methyl-4-(trifluoromethyl)-1H-imidazol-1-yl]-3′-(pyrrolidin-1-ylsulfonyl)biphenyl-3-yl}-5-{4-[(trifluoromethyl)oxy]phenyl}-1H-1,2,3-triazole] | 384 | 66
Cc1nc(C(F)(F)F)cn1-c1ccc(-c2cccc(S(C)(=O)=O)c2)cc1-n1nncc1CCc1ccc(Cl)cc1 [Example 129, 5-[2-(4-chlorophenyl)ethyl]-1-{3′-(methylsulfonyl)-4-[2-methyl-4-(trifluoromethyl)-1H-imidazol-1-yl]biphenyl-3-yl}-1H-1,2,3-triazole] | 1500 | 65

Results, then the molecule that gave them:

EC50 [nM] | Emax [%] | SMILES
216 | 43 | Cc1nc(-c2ccccc2OC(F)(F)F)c(-c2cc(-c3cccc(S(C)(=O)=O)c3)ccc2-n2cc(C(F)(F)F)nc2C)o1 [Example 631, 2-methyl-5-(4-(2-methyl-4-(trifluoromethyl)-1H-imidazol-1-yl)-3′-(methylsulfonyl)-[1,1′-biphenyl]-3-yl)-4-(2-(trifluoromethoxy)phenyl)oxazole]
67 | 48 | Cc1nc(-c2cc(-c3cc(F)c(CO)c(S(C)(=O)=O)c3)ccc2-n2cc(C(F)(F)F)nc2C)c(-c2ccc(SC(F)(F)F)cc2)o1 [Example 543]
25 | 90 | Cc1nc(-c2cc(-c3cccc(S(=O)(=O)N(C)C)c3)ccc2-n2cc(C(F)(F)F)nc2C)c(-c2ccc(OC(F)F)cc2)o1 [Example 541, 3′-(5-(4-(difluoromethoxy)phenyl)-2-methyloxazol-4-yl)-dimethyl-4′-(2-methyl-4-(trifluoromethyl)-1H-imidazol-1-yl)-[1,1′-biphenyl]-3-sulfonamide]
42 | 86 | Cc1nc(-c2cc(-c3ccc(CO)c(S(C)(=O)=O)c3)ccc2-n2cc(C(F)(F)F)nc2C)c(-c2ccc(OC(F)(F)F)cc2)o1 [Example 522, (4′-(2-methyl-4-(trifluoromethyl)-1H-imidazol-1-yl)-3′-(2-methyl-5-(4-(trifluoromethoxy)phenyl)oxazol-4-yl)-3-(methylsulfonyl)-[1,1′-biphenyl]4-yl)methanol]
474 | 39 | Cc1nc(-c2cc(-c3cccc(S(C)(=O)=O)c3)ccc2-n2cc(C(F)(F)F)nc2C)c(-c2ccccc2OC(F)F)o1 [Example 547, 5-(2-(difluoromethoxy)phenyl)-2-methyl-4-(4-(2-methyl-4-(trifluoromethyl)-1H-imidazol-1-yl)-3′-(methylsulfonyl)-[1,1′-biphenyl]-3-yl)oxazole]
175 | 78 | Cc1nc(-c2cc(-c3cccc(S(C)(=O)=O)c3)ccc2-n2cc(C(F)(F)F)nc2C)c(-c2cc(F)c(OC(F)F)c(F)c2)o1 [Example 367, (4-(difluoromethoxy)-3,5-difluorophenyl)-2-methyl-4-(4-(2-methyl-4-(trifluoromethyl)-1H-imidazol-1-yl)-3′-(methylsulfonyl)-[, 1′-biphenyl]-3-yl)oxazole]
341 | 84 | Cc1nc(C(F)(F)F)cn1-c1ccc(-c2cccc(S(C)(=O)=O)c2)cc1-c1nc(C2CC2)cn1-c1ccc2c(c1)OC(F)(F)O2 [Example 643, 4-cyclopropyl-1-(2,2-difluorobenzo[d][1,3]dioxol-5-yl)-2-(4-(2-methyl-4-(trifluoromethyl)-1H-imidazol-1-yl)-3′-(methylsulfonyl)biphenyl-3-yl)-1H-imidazole]
64 | 84 | Cc1nc(-c2cc(-c3cccc(S(C)(=O)=O)c3)ccc2-n2cc(C(F)(F)F)nc2C)c(-c2ccc(OC(F)F)c(F)c2)o1 [Example 376, 5-(4-(difluoromethoxy)-3-fluorophenyl)-2-methyl-4-(4-(2-methyl-4-(trifluoromethyl)-1H-imidazol-1-yl)-3′-(methylsulfonyl)biphenyl-3-yl)oxazole]
46 | 59 | Cc1nc(-c2cc(-c3cc(F)c(CO)c(S(C)(=O)=O)c3)ccc2-n2cc(Cl)nc2C)c(-c2ccc3c(c2)OC(F)(F)O3)o1 [Example 424, (4′-(4-chloro-2-methyl-1H-imidazol-1-yl)-3′-(5-(2,2-difluorobenzo[d][1,3]dioxol-5-yl)-2-methyloxazol-4-yl)-3-fluoro-5-(methylsulfonyl)biphenyl-4-yl)methanol]
